From patent publication US11963960B2 (Flash Therapeutics, LLC, priority 2020, dated 2024) come the findings set out here.

A short description of data set [1]: Assessment of In Vivo Pharmacokinetics in Beagle dog. The following applies: for Dog BAV: male Beagle dog, iv or po at 1 mg/kg or 3 mg/kg. As for the experimental part:
Assessment of In Vivo Pharmacokinetics
A total of 6 Male Non-naïve Beagle dog, weighing approximately 8.00-10.00 kg (Beijing Marshall Biotechnology Co. LTD), were dosed by intravenous injection (iv) or oral gavage (po) at 1 mg/kg or 3 mg/kg. The vehicles of IV and PO are 100% saline and 100% (0.5% MC in water), respectively. The IV dose was conducted via cephalic vein injection, PO via gavage administration. The animals were restrained manually, and approximately 0.5 mL blood/time point was collected from cephalic vein into pre-cooled K2EDTA tubes. Blood sample was put on wet ice and centrifuged at 4° C. (2000 g, 5 min) to obtain plasma within 15 minutes of sample collection. Plasma samples were analyzed by UPLC/MS-MS. PK parameters were estimated by non-compartmental model using WinNonlin6.4.

A short description of data set [2]: Assessment of In Vitro Metabolic Stability in dog liver microsomes. It is filed as in vitro ADME. The following applies: for half-life at 1 μM: dog liver microsomes 0.5 mg/mL, 1 μM compound, NADPH, 37° C., read-out: Dog LM t1/2; for t1/2 in dog LM compared with the compound of example 1: comparison in words. As for the experimental part: Assessment of In Vitro Metabolic Stability
Dog liver microsomes (0.5 mg/mL) were purchased from Corning. Stock solutions were prepared at 10 mM in DMSO for the test compound. Aliquots of the stock solutions were diluted to 0.5 mM with acetonitrile, and then further diluted upon the addition of liver microsomes/buffer to 1.5 μM. An aliquot of 30 μL of 1.5 μM solutions was mixed with 15 μL of 6 mM NADPH and the final concentration of NADPH was 2 mM, which had been pre-warmed to 37° C. Test compound and Ketanserin final concentrations were 1 μM. The plates were kept in a 37° C. water bath for the duration of the experiment. At each time point (0, 5, 15, 30, 45 minutes), 135 μL of acetonitrile was added into corresponding wells. After the final time point was quenched by acetonitrile, the assay plates were shaken (IKA, MTS 2/4) for 10 min (600 rpm/min) and then centrifuged at 5,594 g for 15 min (Thermo Multifuge×3R). Aliquots of the supernatant were taken, diluted 1:1 into distilled water, and analyzed by LC-MS/MS. The peak area response ratio to internal standard (PARR) of the compounds at 5, 15, 30, 45 minutes was compared to the PARR at time 0 to determine the percent of test compound remaining at each time point. Half-lives were calculated using Excel software, fitting to a single-phase exponential decay equation.
A general note: Liver microsomes are a subcellular fraction often used to study metabolism.

Data set [3] addresses N-terminally GST-tagged HCK (75-526) (Homo sapiens (Human), UniProt P08631). The data set can be described thus: HCK Kinase Assay (ProFluor Src-Family Kinase Assay). The format is biochemical. Summed up:
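ProFluor Src-family format: after the kinase reaction, protease solution was added for 60 min at room temperature (22-25° C), then stabilizer.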

The mark [4] stands for this setting: HCK inhibitory activity, 50 μM ATP, read-out: HCK Activity.

Where two headings read alike, the source gives them in different places. Bounds are passed on as bounds.

Chain of N-terminally GST-tagged HCK (75-526) (P08631 75-526): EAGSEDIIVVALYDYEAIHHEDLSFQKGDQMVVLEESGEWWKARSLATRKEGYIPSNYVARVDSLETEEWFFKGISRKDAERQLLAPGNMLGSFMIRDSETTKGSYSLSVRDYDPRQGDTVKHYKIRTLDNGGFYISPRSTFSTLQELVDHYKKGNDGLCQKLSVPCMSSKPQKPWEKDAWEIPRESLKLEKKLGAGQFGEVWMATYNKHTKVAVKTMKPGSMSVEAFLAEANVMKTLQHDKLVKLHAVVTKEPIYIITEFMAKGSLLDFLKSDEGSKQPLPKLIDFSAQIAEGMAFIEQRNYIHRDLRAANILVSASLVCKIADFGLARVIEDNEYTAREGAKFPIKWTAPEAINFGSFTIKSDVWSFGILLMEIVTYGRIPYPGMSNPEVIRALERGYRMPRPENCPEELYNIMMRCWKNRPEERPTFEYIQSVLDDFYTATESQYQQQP

Regarding `CN1CCN([C@H]2CC[C@H](n3cc(-c4ccc(Oc5ccccc5)cc4)c4c(N)ncnc43)CC2)CC1` [Example 1, 7-((trans)-4-(4-methylpiperazin-1-yl)cyclohexyl)-5-(4-phenoxyphenyl)-7H-pyrrolo[2,3-d]pyrimidin-4-amine], in data set [1], the “Dog BAV” value stood at 0 % F. Besides, in data set [2], the half-life at 1 μM came out at 0.183 h. The IC50 in data set [3] is under 50 nM; in data set [3] (50 μM ATP, read-out: HCK IC50), 3.3 nM.

As to `C[C@H]1CN([C@H]2CC[C@H](n3cc(-c4ccc(Oc5ccccc5)cc4)c4c(N)ncnc43)CC2)CCN1` [Example 19, 7-((trans)-4-((S)-3-methylpiperazin-1-yl)cyclohexyl)-5-(4-phenoxyphenyl)-7H-pyrrolo[2,3-d]pyrimidin-4-amine], in data set [2], the “t1/2 in dog LM compared with the compound of example 1” value is recorded as “higher t1/2” and the half-life at 1 μM came out at 1.4 h. For the same compound, the IC50 in data set [3] (50 μM ATP, read-out: HCK IC50) was 17 nM. Moreover, the IC50 in data set [3] (setting [4]) is under 50 nM.

Consider `C[C@H]1CN([C@H]2CC[C@H](n3nc(-c4ccc(Oc5ccccc5)cc4)c4c(N)ncnc43)CC2)CCN1` [Example 21, 1-((trans)-4-((S)-3-methylpiperazin-1-yl)cyclohexyl)-3-(4-phenoxyphenyl)-1H-pyrazolo[3,4-d] pyrimidin-4-amine], for which the “t1/2 in dog LM compared with the compound of example 1” value in data set [2] is “higher t1/2”. For the same compound, in data set [2], the half-life at 1 μM turned out to be 2.13 h. The IC50 in data set [3] (50 μM ATP, read-out: HCK IC50) is 43 nM; in data set [3] (setting [4]), under 50 nM.

`CN1CCN([C@H]2CC[C@H](n3nc(-c4ccc(Oc5ccccc5)cc4F)c4c(N)ncnc43)CC2)CC1` [Example 103, 3-(2-Fluoro-4-phenoxyphenyl)-1-((trans)-4-(4-methylpiperazin-1-yl)cyclohexyl)-1H-pyrazolo [3,4-d] pyrimidin-4-amine]: in data set [1] (dog, comparison in words), the bioavailability in vivo result is given as “higher bioavailability” and the “plasma clearance in vivo” value is listed as “lower plasma clearance”. In data set [1], the “Dog BAV” value was 24 % F. In addition, in data set [2], the “t1/2 in dog LM compared with the compound of example 1” value is given as “higher t1/2” and the half-life at 1 μM turned out to be 0.967 h. For the same compound, in data set [3] (50 μM ATP, read-out: HCK IC50), the IC50 was 4.1 nM. In data set [3] (setting [4]), the IC50 is under 50 nM.

As for `Nc1ncnc2c1c(-c1ccc(Oc3ccccc3)cc1)cn2C1CCN(C2CCNC(CO)C2)CC1` (stereo not drawn) [Example 157, (4-(4-amino-5-(4-phenoxyphenyl)-7H-pyrrolo[2,3-d]pyrimidin-7-yl)-[1,4′-bipiperidin]-2′-yl)methanol], the IC50 in data set [3] (setting [4]) was under 50 nM.

Regarding `COC(=O)C1CC(N2CCC(n3cc(-c4ccc(Oc5ccccc5)cc4)c4c(N)ncnc43)CC2)CCN1` (stereo not drawn) [Example 158, methyl 4-(4-amino-5-(4-phenoxyphenyl)-7H-pyrrolo[2,3-d]pyrimidin-7-yl)-[1,4′-bipiperidine]-2′-carboxylate], the IC50 in data set [3] (setting [4]) is 50 to 250 nM.

Turning to `Nc1ncnc2c1c(-c1ccc(Oc3ccccc3)cc1)cn2C1CCN(C2CCCC(N)C2)CC1` (stereo not drawn) [Example 159, 7-(1-(3-aminocyclohexyl)piperidin-4-yl)-5-(4-phenoxyphenyl)-7H-pyrrolo[2,3-d]pyrimidin-4-amine], in data set [3] (setting [4]), the IC50 is under 50 nM.

With `CN1CCCC(N2CCC(n3cc(-c4ccc(Oc5ccccc5)cc4)c4c(N)ncnc43)CC2)C1` (stereo not drawn) [Example 160, 7-(1′-methyl-[1,3′-bipiperidin]-4-yl)-5-(4-phenoxyphenyl)-7H-pyrrolo [2,3-d] pyrimidin-4-amine], the IC50 in data set [3] (setting [4]) was 50 to 250 nM.

`Nc1ncnc2c1c(-c1ccc(Oc3ccccc3)cc1)cn2C1CCN(C(CO)CO)CC1` [Example 161, 2-(4-(4-amino-5-(4-phenoxyphenyl)-7H-pyrrolo[2,3-d]pyrimidin-7-yl)piperidin-1-yl)propane-1,3-diol]: the IC50 in data set [3] (setting [4]) was under 50 nM.

For `NCC1OCC(N2CCC(n3cc(-c4ccc(Oc5ccccc5)cc4)c4c(N)ncnc43)CC2)CO1` (stereo not drawn) [Example 162, 7-(1-(2-(aminomethyl)-1,3-dioxan-5-yl)piperidin-4-yl)-5-(4-phenoxyphenyl)-7H-pyrrolo[2,3-d]pyrimidin-4-amine], the IC50 in data set [3] (setting [4]) is under 50 nM.

`CN1CCN([C@H]2CC[C@@H](c3nc(-c4ccc(Oc5ccccc5)cc4F)c4c(N)ncnn43)CC2)CC1` [Example 164, 5-(2-Fluoro-4-phenoxyphenyl)-7-((cis)-4-(4-methylpiperazin-1-yl)cyclohexyl)imidazo[5,1-f][1,2,4]triazin-4-amine]: the IC50 in data set [3] (setting [4]) lay in the range of 50 to 250 nM.

`C[C@H]1CN([C@H]2CC[C@H](c3nc(-c4ccc(Oc5ccccc5)cc4F)c4c(N)ncnn43)CC2)CCN1` [Example 165, 5-(2-fluoro-4-phenoxyphenyl)-7-((trans)-4-((S)-3-methylpiperazin-1-yl)cyclohexyl)imidazo[5,1-f][1,2,4]triazin-4-amine]: in data set [2], the “t1/2 in dog LM compared with the compound of example 1” value is “higher t1/2” and the half-life at 1 μM came to 2.78 h. For the same compound, the IC50 in data set [3] (50 μM ATP, read-out: HCK IC50) was 5 nM. In data set [3] (setting [4]), the IC50 was under 50 nM.

For `C[C@H]1CN([C@H]2CC[C@@H](c3nc(-c4ccc(Oc5ccccc5)cc4F)c4c(N)ncnn43)CC2)CCN1` [Example 166, 5-(2-fluoro-4-phenoxyphenyl)-7-((cis)-4-((S)-3-methylpiperazin-1-yl)cyclohexyl)imidazo[5,1-f][1,2,4]triazin-4-amine], the IC50 in data set [3] (setting [4]) was in the range of 250 to 10000 nM.

For `CN1CCN([C@H]2CC[C@@H](c3cc(-c4ccc(Oc5ccccc5)cc4)c4c(N)ncnn43)CC2)CC1` [Example 167, 7-((cis)-4-(4-Methylpiperazin-1-yl)cyclohexyl)-5-(4-phenoxyphenyl)pyrrolo[2,1-f][1,2,4]triazin-4-amine], the IC50 in data set [3] (setting [4]) fell in the range of 250 to 10000 nM.

For the compound `CN1CCN([C@H]2CC[C@H](c3cc(-c4ccc(Oc5ccccc5)cc4)c4c(N)ncnn43)CC2)CC1` [Example 168, 7-((trans)-4-(4-Methylpiperazin-1-yl)cyclohexyl)-5-(4-phenoxyphenyl)pyrrolo[2,1-f][1,2,4]triazin-4-amine], the IC50 in data set [3] (setting [4]) is under 50 nM.

In the case of `C[C@H]1CN([C@H]2CC[C@H](c3cc(-c4ccc(Oc5ccccc5)cc4)c4c(N)ncnn43)CC2)CCN1` [Example 169, 7-((trans)-4-((S)-3-Methylpiperazin-1-yl)cyclohexyl)-5-(4-phenoxyphenyl)pyrrolo[2,1-f][1,2,4]triazin-4-amine], the IC50 in data set [3] (setting [4]) is under 50 nM.

On to `C[C@H]1CN([C@H]2CC[C@@H](c3cc(-c4ccc(Oc5ccccc5)cc4)c4c(N)ncnn43)CC2)CCN1` [Example 170, 7-((cis)-4-((S)-3-Methylpiperazin-1-yl)cyclohexyl)-5-(4-phenoxyphenyl)pyrrolo[2,1-f][1,2,4]triazin-4-amine], for which the IC50 in data set [3] (setting [4]) was in the range of 50 to 250 nM.

With `CN1CCN([C@H]2CC[C@H](c3cc(-c4ccc(NC(=O)Nc5cc(C(C)(C)C)on5)cc4)c4c(N)ncnn43)CC2)CC1` [Example 171], the IC50 in data set [3] (setting [4]) was under 50 nM.

`CN1CCN([C@H]2CC[C@@H](c3cc(-c4ccc(NC(=O)Nc5cc(C(C)(C)C)on5)cc4)c4c(N)ncnn43)CC2)CC1` [Example 172]: the IC50 in data set [3] (setting [4]) is under 50 nM.

Regarding `CN1CCN([C@H]2CC[C@H](c3nc(-c4ccc(Oc5ccccc5)cc4)c4c(N)nccn43)CC2)CC1` [Example 173, 3-((trans)-4-(4-Methylpiperazin-1-yl)cyclohexyl)-1-(4-phenoxyphenyl)imidazo[1,5-a]pyrazin-8-amine], the IC50 in data set [3] (setting [4]) was under 50 nM.

Regarding `CN1CCN([C@H]2CC[C@@H](c3nc(-c4ccc(Oc5ccccc5)cc4)c4c(N)nccn43)CC2)CC1` [Example 174, 3-((cis)-4-(4-Methylpiperazin-1-yl)cyclohexyl)-1-(4-phenoxyphenyl)imidazo[1,5-a]pyrazin-8-amine], in data set [3] (setting [4]), the IC50 fell in the range of 250 to 10000 nM.

For `CN1CCN([C@H]2CC[C@H](c3nc(-c4ccc(NC(=O)Nc5cc(C(C)(C)C)on5)cc4)c4c(N)nccn43)CC2)CC1` [Example 175, 1-(4-(8-amino-3-((trans)-4-(4-methylpiperazin-1-yl)cyclohexyl)imidazo[1,5-a]pyrazin-1-yl)phenyl)-3-(5-(tert-butyl)isoxazol-3-yl)urea], the IC50 in data set [3] (setting [4]) is under 50 nM.

Consider `CN1CCN([C@H]2CC[C@@H](c3cn(-c4ccc(Oc5ccccc5)cc4)c4c(N)ncnc43)CC2)CC1` [Example 176, 7-((cis)-4-(4-methylpiperazin-1-yl)cyclohexyl)-5-(4-phenoxyphenyl)-5H-pyrrolo[3,2-d]pyrimidin-4-amine], for which the IC50 in data set [3] (setting [4]) lay within 250 to 10000 nM.

As for `CN1CCN([C@H]2CC[C@H](c3cn(-c4ccc(Oc5ccccc5)cc4)c4c(N)ncnc43)CC2)CC1` [Example 177, 7-((trans)-4-(4-methylpiperazin-1-yl)cyclohexyl)-5-(4-phenoxyphenyl)-5H-pyrrolo[3,2-d]pyrimidin-4-amine], the IC50 in data set [3] (setting [4]) was under 50 nM.
